ChEMBL document CHEMBL1133460, “Synthesis and biological evaluation of certain alpha,beta-unsaturated ketones and their corresponding fused pyridines as antiviral and cytotoxic agents” (J Med Chem, 2000)
Values after ≈ are worked out from the molar mass of the structure shown. Values joined by “and” are separate entries in the source; they are usually repeats but may differ in a detail not shown here. Identical values can stand only once. Active and inactive are the calls of the source. No cut-off for these calls is given here.

Columns and labels:
MT4 = experiment: In vitro inhibitory activity against uninfected T4 cells; type: functional, cell-based; conditions: Homo sapiens
[1] = system: Human immunodeficiency virus 1; experiment: (§1) In vitro effective concentration against HIV-1 cytopathic effect in T4 cells; Inactive; type: functional, organism-based
Human alphaherpesvirus 1 [2] = experiment: Concentration which caused 50% loss of the monolayer present around the viral plaques in uM; type: functional, organism-based
Human alphaherpesvirus 1 [3] = experiment: Minimum antiviral concentration proved to be lethal to viral population in uM; type: functional
Human alphaherpesvirus 1 [4] = experiment: In vitro antiviral activity against Herpes Simplex-1 virus (HSV-1) expressed as percent reduction in the number of viral plaques; type: functional; design: concentration or dose not given beside the values
Human alphaherpesvirus 1 [5] = experiment: Minimum antiviral concentration proved to be lethal to viral population in ug/mL.; type: functional
Human alphaherpesvirus 1 [6] = experiment: Concentration which caused 50% loss of the monolayer present around the viral plaques in ug/mL.; type: functional, organism-based
[7] = Therapeutic index (IC50/EC50) was determined; conditions: read-out: TI50
[8] = In vitro effective concentration against HIV-1 cytopathic effect in T4 cells; type: functional, cell-based; conditions: Homo sapiens
Breast cancer cell line [9] = experiment: In vitro growth inhibitory concentration against breast cancer cell lines; type: functional; conditions: Homo sapiens
[10] = Full panel mean-graph midpoint (MG-MID)
[11] = system: Panel renal (Carcinoma cell lines); experiment: In vitro growth inhibitory concentration against renal cancer cell lines; type: functional; conditions: Homo sapiens
[12] = In vitro growth inhibitory concentration against colon cancer tumor cell lines; type: functional; conditions: Homo sapiens
[13] = system: Panel prostate (Carcinoma cell lines); experiment: In vitro growth inhibitory concentration against prostate cancer cell lines; type: functional; conditions: Homo sapiens
[14] = system: Panel CNS (Carcinoma cell lines); experiment: In vitro growth inhibitory concentration against CNS cancer cell lines; type: functional; conditions: Homo sapiens
Ovarian cancer cell line [15] = experiment: In vitro median growth inhibitory concentration against ovarian cancer cell lines; type: functional; conditions: Homo sapiens
Ovarian cancer cell line [16] = experiment: In vitro growth inhibitory concentration against ovarian cancer cell lines; type: functional; conditions: Homo sapiens
[17] = system: Panel leukemia (Carcinoma cell lines); experiment: In vitro median growth inhibitory conc. against leukemia was estimated.; type: functional; conditions: Homo sapiens
[18] = system: Panel renal (Carcinoma cell lines); experiment: In vitro median growth inhibitory concentration against renal cancer cell lines; type: functional; conditions: Homo sapiens
Homo sapiens = species on record: Homo sapiens; experiment: Selectivity ratio between the full panel MG-MID and leukemia subpanel MG-MID was determined.; type: functional
[19] = system: Panel prostate (Carcinoma cell lines); experiment: In vitro median growth inhibitory concentration against prostate cancer cell lines; type: functional; conditions: Homo sapiens
[20] = system: Panel melanoma (Carcinoma cell lines); experiment: In vitro median growth inhibitory concentration against melanoma cell lines; type: functional; conditions: Homo sapiens
[21] = In vitro median growth inhibitory concentration against colon cancer cell lines; type: functional; conditions: Homo sapiens
Breast cancer cell line [22] = experiment: In vitro median growth inhibitory concentration against breast cancer cell lines; type: functional; conditions: Homo sapiens
[23] = system: Panel CNS (Carcinoma cell lines); experiment: In vitro median growth inhibitory concentration against CNS cancer cell lines; type: functional; conditions: Homo sapiens
NSCLC [24] = experiment: In vitro growth inhibitory concentration against non-small-cell lung cancer; type: functional; conditions: Homo sapiens
NSCLC [25] = experiment: In vitro median growth inhibitory concentration against non-small-cell lung cancer; type: functional; conditions: Homo sapiens
[26] = system: Panel melanoma (Carcinoma cell lines); experiment: In vitro growth inhibitory concentration against melanoma cancer cell lines; type: functional; conditions: Homo sapiens
[27] = system: Panel leukemia (Carcinoma cell lines); experiment: In vitro growth inhibitory concentration against leukemia tumor cell lines; type: functional; conditions: Homo sapiens
Tumor cell line [28] = experiment: In vitro for median growth inhibitory concentration against melanoma cell lines; type: functional; conditions: Homo sapiens
Tumor cell line [29] = experiment: In vitro for median growth inhibitory concentration against breast cancer cell lines; type: functional; conditions: Homo sapiens
Tumor cell line [30] = experiment: In vitro for median growth inhibitory concentration against ovarian cancer cell lines; type: functional; conditions: Homo sapiens
Tumor cell line [31] = experiment: In vitro for median growth inhibitory concentration against prostate cancer cell lines; type: functional; conditions: Homo sapiens
Tumor cell line [32] = experiment: In vitro for median growth inhibitory concentration against CNS cancer cell lines; type: functional; conditions: Homo sapiens
Tumor cell line [33] = experiment: In vitro for median growth inhibitory concentration against renal cancer cell lines; type: functional; conditions: Homo sapiens
Tumor cell line [34] = experiment: In vitro for median growth inhibitory conc. against leukemia (compounds full panel MG-MID/leukemia subpanel MG-MID); type: functional; conditions: Homo sapiens
Tumor cell line [35] = experiment: In vitro for growth inhibitory concentration against non small lung cancer cell lines; type: functional; conditions: Homo sapiens
Tumor cell line [36] = experiment: In vitro for median growth inhibitory concentration against non small lung cancer cell lines; type: functional; conditions: Homo sapiens
Tumor cell line [37] = experiment: In vitro for median growth inhibitory concentration against colon cancer cell lines; type: functional; conditions: Homo sapiens
[38] = Full panel mean-graph midpoint (MG-MID).
Tumor cell line [39] = experiment: In vitro for median growth inhibitory concentration against leukemia; type: functional; conditions: Homo sapiens
T4 = experiment: as §1; type: functional, cell-based; conditions: Homo sapiens

Structure (SMILES) | IC50 (MT4) [µM] | EC50 [1] | IC50 (Human alphaherpesvirus 1 [2]) [µM] | MAC (Human alphaherpesvirus 1 [3]) [µM] | Reduction (Human alphaherpesvirus 1 [4]) [%] | MAC (Human alphaherpesvirus 1 [5]) [µg/mL] | IC50 (Human alphaherpesvirus 1 [6]) [µg/mL] | TGI (Breast cancer cell line [9]) [µM] | MG-MID [10] | TGI [11] [µM] | TGI [12] [µM] | TGI [13] [µM] | TGI [14] [µM] | TGI (Ovarian cancer cell line [16]) [µM] | TGI [26] [µM] | TGI [27] [µM] | GI50 (Tumor cell line [28]) [µM] | GI50 (Tumor cell line [30]) [µM] | GI50 (Tumor cell line [31]) [µM] | GI50 (Tumor cell line [32]) [µM] | also measured
CN1C/C(=C\c2cccs2)c2nc(O)c(C#N)c(-c3cccs3)c2C1 | > 200 | Not Active |  |  |  |  |  |  |  |  |  |  |  |  |  |  |  |  |  |  | 
Cc1ccc(/C=C2\CN(C)C/C(=C\c3ccc(C)cc3)C2O)cc1 |  |  | 0.63 | 0.06 | 82 | 0.02 | 0.2 (≈ 0.626 µM) |  |  |  |  |  |  |  |  |  |  |  |  |  | 
C[C@@]1(CO)[C@H](O)CC[C@@]2(C)[C@H]1CC[C@H]1C[C@@H]3C[C@@]12CC[C@]3(O)CO [APHIDICOLIN] |  |  | 0.59 | 0.02 | 100 | 0.005 | 0.2 (≈ 0.591 µM) |  |  |  |  |  |  |  |  |  |  |  |  |  | 
CN1C/C(=C\c2ccncc2)C(=O)/C(=C/c2ccncc2)C1 | > 200 |  |  |  |  |  |  |  |  |  |  |  |  |  |  |  |  |  |  |  | selectivity ratio [7]: > 3.09; EC50 [8]: 64.7 µM
CN1C/C(=C\c2cccs2)C2=NN(C)C(c3cccs3)C2C1 (stereo not given) | > 200 | Not Active |  |  |  |  |  | > 100 | 68 µM and 97.7 µM | > 100 | > 100 | > 100 | > 100 | > 100 | 97.7 | 87.8 |  |  |  |  | GI50 (Ovarian cancer cell line [15]): 74.4 µM; GI50 [17]: 31.8 µM; GI50 [18]: 89.7 µM; Ratio (Homo sapiens): 2.1; GI50 [19]: 59.5 µM; GI50 [20]: 85 µM; GI50 [21]: 79.2 µM; GI50 (Breast cancer cell line [22]): 86 µM; GI50 [23]: 80.7 µM; TGI (NSCLC [24]): > 100 µM; GI50 (NSCLC [25]): 86.4 µM
COc1ccc(/C=C2\CN(C)CC3=C2OC(N)=C(C#N)C3c2ccc(OC)cc2)cc1 (stereo not given) | 30.4 | Not Active |  |  |  |  |  | 93.8 | 85.6 µM | 96.9 | 97.4 | > 100 | > 100 | > 100 | 93.9 | 49.9 | 70.7 | 38.1 | 79.4 | 60.5 | GI50 (Tumor cell line [29]): 48.6 µM; GI50 (Tumor cell line [33]): 40.4 µM; GI50 (Tumor cell line [34]): 9.1 µM; TGI (Tumor cell line [35]): 95.5 µM; GI50 (Tumor cell line [36]): 36.7 µM; GI50 (Tumor cell line [37]): 41.2 µM; MG-MID [38]: 33.3 µM
COc1ccc(/C=C2\CN(C)C/C(=C\c3ccc(OC)cc3)C2O)cc1 |  |  | 0.12 | 0.06 | 58 | 0.02 | 0.04 (≈ 0.114 µM) |  |  |  |  |  |  |  |  |  |  |  |  |  | 
Cc1ccc(/C=C2\CN(C)CC3=C2OC(N)=C(C#N)C3c2ccc(C)cc2)cc1 (stereo not given) | 11.1 | Not Active |  |  |  |  |  | 70.1 | 51.1 µM | 54.5 | 43.9 | 66.2 | 83.6 | 55.7 | 59.5 | 17.9 | 26.6 | 15.5 | 29.4 | 37.7 | TGI (Tumor cell line [29]): 30.7 µM; GI50 (Tumor cell line [33]): 18.1 µM; GI50 (Tumor cell line [34]): 5.1 µM; TGI (Tumor cell line [35]): 54.1 µM; GI50 (Tumor cell line [36]): 3.3 µM; GI50 (Tumor cell line [37]): 16.6 µM; MG-MID [38]: 16.9 µM
CN1C/C(=C\c2cccs2)C(=O)/C(=C/c2cccs2)C1 | 15.2 |  | 0.66 | 3.3 | 33 | 0.1 | 0.2 (≈ 0.663 µM) | 75.4 |  | 70.4 | 72.2 |  | 82.7 | 81.4 | 84.1 | 51.6 | 34.6 | 23.5 | 23.9 | 36.6 | GI50 (Tumor cell line [29]): 28.7 µM; GI50 (Tumor cell line [39]): 10.6 µM; GI50 (Tumor cell line [33]): 24.2 µM; Inhibition (T4): inactive; TGI (Tumor cell line [35]): 90.1 µM; GI50 (Tumor cell line [36]): 36.5 µM; GI50 (Tumor cell line [37]): 23.7 µM
CN1C/C(=C\c2ccc(Cl)cc2)C(=O)/C(=C/c2ccc(Cl)cc2)C1 |  |  | 0.69 | 0.07 | 93 | 0.02 | 0.2 (≈ 0.558 µM) |  |  |  |  |  |  |  |  |  |  |  |  |  | 
